Results reported in ChEMBL document CHEMBL4811304, “Design, synthesis and biological evaluation of dual mTOR/HDAC6 inhibitors in MDA-MB-231 cells” (Bioorg Med Chem Lett, 2021).
pIC50: −log10 of the molar value. Activity calls are given as the source filed them. No cut-off for these calls is given here.

How the values were obtained:
MDA-MB-231 [1] = assay: Induction of apoptosis in human MDA-MB-231 cells assessed as live cells at 5 uM by annexin V/propidium iodide staining-based flow cytometry analysis (reference value: 96.7 %); type: functional
MDA-MB-231 [2] = assay: Induction of apoptosis in human MDA-MB-231 cells assessed as late apoptotic cells at 10 uM by annexin V/propidium iodide staining-based flow cytometry analysis (reference value: 2.34 %); type: functional
MDA-MB-231 [3] = assay: Antiproliferative activity against human MDA-MB-231 cells assessed as inhibition of clone formation at 2.5 to 10 uM; type: functional, cell-based; settings: dose 2.5-10 µM
MDA-MB-231 [4] = assay: Induction of apoptosis in human MDA-MB-231 cells assessed as early apoptotic cells at 10 uM by annexin V/propidium iodide staining-based flow cytometry analysis (reference value: 0.69 %); type: functional
[5] = Solubility of the compound; type: physicochemical
MDA-MB-231 [6] = assay: Induction of apoptosis in human MDA-MB-231 cells assessed as increase in PARP cleavage at 5 to 20 uM by Western blot analysis; type: functional, cell-based; settings: dose 5-20 µM
MDA-MB-231 [7] = assay: Inhibition of cell migration in human MDA-MB-231 cells assessed as increase in E-cadherin expression at 5 to 20 uM after 48 hrs by Western blot analysis; type: functional, cell-based; settings: dose 5-20 µM
MDA-MB-231 [8] = assay: Induction of apoptosis in human MDA-MB-231 cells assessed as necrotic cells at 10 uM by annexin V/propidium iodide staining-based flow cytometry analysis (reference value: 0.099 %); type: functional
MDA-MB-436 = assay: Antiproliferative activity against human MDA-MB-436 cells measured after 48 hrs; type: functional, cell-based; settings: MDA-MB-436, 48 h
[9] = molecular target: T1, Serine/threonine-protein kinase mTOR (Homo sapiens, UniProt P42345); assay: Inhibition of mTOR (unknown origin)
MDA-MB-231 [10] = assay: Induction of apoptosis in human MDA-MB-231 cells by annexin V/propidium iodide staining-based flow cytometry analysis; type: functional, cell-based; settings: dose 5-20 µM
MDA-MB-231 [11] = assay: Induction of apoptosis in human MDA-MB-231 cells assessed as downregulation of Bcl-2 at 5 to 20 uM by Western blot analysis; type: functional, cell-based; settings: dose 5-20 µM
MDA-MB-231 [12] = assay: Induction of autophagy in human MDA-MB-231 cells transfected with GFP-LC3 assessed as increase in LC3II level at 5 to 20 uM after 48 hrs by Western blot analysis; type: functional, cell-based; settings: dose 5-20 µM
Histone deacetylase 2 = Histone deacetylase 2 (Homo sapiens, UniProt Q92769); assay: Binding affinity to HDAC2 in human MDA-MB-231 cells assessed as increase in thermal stability at 10 uM measured at 6 hrs by CETSA; type: cell-based
Histone deacetylase 2, sequence (Q92769 whole entry): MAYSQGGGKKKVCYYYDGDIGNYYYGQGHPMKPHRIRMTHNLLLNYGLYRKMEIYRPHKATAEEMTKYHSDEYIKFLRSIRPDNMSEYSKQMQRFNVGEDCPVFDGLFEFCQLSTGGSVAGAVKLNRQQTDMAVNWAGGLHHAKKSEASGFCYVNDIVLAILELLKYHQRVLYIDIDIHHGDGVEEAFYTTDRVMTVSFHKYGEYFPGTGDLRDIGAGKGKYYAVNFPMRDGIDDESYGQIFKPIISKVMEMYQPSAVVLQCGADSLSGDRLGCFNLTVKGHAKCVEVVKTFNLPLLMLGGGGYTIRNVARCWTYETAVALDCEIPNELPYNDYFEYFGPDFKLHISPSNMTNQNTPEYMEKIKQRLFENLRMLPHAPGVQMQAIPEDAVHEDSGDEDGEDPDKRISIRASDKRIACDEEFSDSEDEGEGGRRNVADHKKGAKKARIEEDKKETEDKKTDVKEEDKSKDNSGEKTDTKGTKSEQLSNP

MDA-MB-231 [13] = assay: Induction of apoptosis in human MDA-MB-231 cells assessed as early apoptotic cells at 5 uM by annexin V/propidium iodide staining-based flow cytometry analysis (reference value: 0.69 %); type: functional
[14] = molecular target: T1, Serine/threonine-protein kinase mTOR; assay: Inhibition of mTOR in human MDA-MB-231 cells assessed as decrease in p70s6k phosphorylation at […] residue at 5 to 20 uM by Western blot analysis; type: cell-based; settings: dose 5-20 µM
MDA-MB-468 = assay: Antiproliferative activity against human MDA-MB-468 cells measured after 48 hrs; type: functional, cell-based; settings: MDA-MB-468, 48 h
MDA-MB-231 [15] = assay: Induction of autophagy in human MDA-MB-231 cells transfected with GFP-LC3 assessed as accumulation of LC3 puncta at 5 to 20 uM after 48 hrs by Western blot analysis; type: functional, cell-based; settings: dose 5-20 µM
MDA-MB-231 [16] = assay: Induction of apoptosis in human MDA-MB-231 cells assessed as late apoptotic cells at 20 uM by annexin V/propidium iodide staining-based flow cytometry analysis (reference value: 2.34 %); type: functional

- solubility [5]: Insoluble
- pIC50 (MDA-MB-436): 4.97
- pIC50 [9]: 6.87
- Activity (Histone deacetylase 2): inactive
- inhibition [14]: Active
- pIC50 (MDA-MB-468): 4.84
Compound: CN1CCN(c2nc(-c3ccc(C(=O)NO)cc3)nc3cc(Cl)ccc23)CC1
- Activity (MDA-MB-231 [1]): 88.1%
- Activity (MDA-MB-231 [2]): 22.4%
- inhibition (MDA-MB-231 [3]): Active
- Activity (MDA-MB-231 [4]): 7.95%
- Activity (MDA-MB-231 [6]): Active
- inhibition (MDA-MB-231 [7]): Active
- Activity (MDA-MB-231 [8]): 0.49%
- Activity (MDA-MB-231 [10]): Dose-Dependent Effect
- Activity (MDA-MB-231 [11]): Active
- Activity (MDA-MB-231 [12]): Active
- Activity (MDA-MB-231 [13]): 4.84%
- Activity (MDA-MB-231 [15]): Active
- Activity (MDA-MB-231 [16]): 34.3%
